Entries after “also recorded” stand apart in the source; their conditions may differ.
Experiments:
[1] = tested on: therapeutic relief of cough, cold and allergy symptoms; experiment: Inventor's findings on relief from GFN or antihistamines combined with IBF+APAP (and PE); no method given; assay type: in vivo, human; conditions: for therapeutic relief expressed as GFN amount: 'it is suggested'
Procedure: A normal 4 hourly dosage of DM and GFN is 20 mg and 400 mg respectively.

[2] = 6.25 mg PE administered with 500 mg APAP; cited from earlier work
[3] = in vivo; cited from earlier work
[4] = tested on: recurring coughs, sneezing, headache, runny nose, pain, cold, fever, sore throat, sinus pressure; experiment: Clinical study: one subject rates relief from new pharmaceutical combinations against previous medication; assay type: in vivo, human; conditions: 2.5 mg cetirizine, 5 mg bilastine, 2.5 mg loratadine or 30 mg fexofenadine, each dose after 3 hours; versus 10, 20, 10 or 120 mg once
Procedure: The subject had recurring coughs, sneezing, headache, runny nose, pain, cold, fever, sore throat, sinus pressure etc. They took medication including DM+GFN combination as well as antihistamines to cure it, namely: • a. Mucinex Expectorant Tablets (600 mg GFN/dose): 1 dose per 12 hours; • b. […] Labixten (20 mg Bilastine/dose): 1 dose per 24 hours. […] On each recurrence of cough and other symptoms a new pharmaceutical combination was given. The subject would then provide feedback on the improvement of their symptoms and rate the performance of the pharmaceutical composition in comparison to their previous medication experience.

COc1ccccc1OCC(O)CO (stereo not shown) [GFN, guaifenesin]
therapeutic relief expressed as GFN amount ([1]; 100 mg GFN taken with 175-200 mg IBF and 275-575 mg APAP): 143 mg GFN | therapeutic relief expressed as GFN amount ([1]; 200 mg GFN taken with 175-200 mg IBF and 275-575 mg APAP): 286 mg GFN | increase in effectiveness of GFN when combined with IBF+APAP ([1]; in vivo): about 45% | GFN dose that, combined with IBF+APAP, gives the relief of a normal 4 hourly dosage of 20 mg DM and 400 mg GFN ([1]; without DM): 280 mg

CNC[C@H](O)c1cccc(O)c1 [PE, Phenylephrine]
PE dosage of similar effect [2]: ~10 mg | effectiveness compared with PSE [3]: not as effective as PSE

CCOCCn1c(C2CCN(CCc3ccc(C(C)(C)C(=O)O)cc3)CC2)nc2ccccc21 [bilastine]
quarter dose administered 4 times daily versus normal full 24-hour dose of the same ingredient at once [4]: better effect; also recorded: performed therapeutically better

O=C(O)COCCN1CCN(C(c2ccccc2)c2ccc(Cl)cc2)CC1 (stereo not shown) [cetirizine]
quarter dose administered 4 times daily versus normal full 24-hour dose of the same ingredient at once [4]: better effect; also recorded: performed therapeutically better

CC(C)(C(=O)O)c1ccc(C(O)CCCN2CCC(C(O)(c3ccccc3)c3ccccc3)CC2)cc1 (stereo not shown) [fexofenadine]
quarter dose administered 4 times daily versus normal full 24-hour dose of the same ingredient at once [4]: better effect; also recorded: performed therapeutically better

CCOC(=O)N1CCC(=C2c3ccc(Cl)cc3CCc3cccnc32)CC1 [loratadine]
quarter dose administered 4 times daily versus normal full 24-hour dose of the same ingredient at once [4]: better effect; also recorded: performed therapeutically better

— patent US20260007621A1, “Pharmaceutical Combinations for Treatment” (priority 2022, published 2026)
